{"source": "ChEMBL document CHEMBL5696442", "about": "“Discovery of type II inhibitors of TGFβ-activated kinase 1 (TAK1) and mitogen-activated protein kinase kinase kinase kinase 2 (MAP4K2)” (J Med Chem, 2015)", "key": {"[1]": {"target": "T1, Mitogen-activated protein kinase kinase kinase kinase 2 (Homo sapiens) (UniProt Q12851)", "T1 sequence (whole entry)": "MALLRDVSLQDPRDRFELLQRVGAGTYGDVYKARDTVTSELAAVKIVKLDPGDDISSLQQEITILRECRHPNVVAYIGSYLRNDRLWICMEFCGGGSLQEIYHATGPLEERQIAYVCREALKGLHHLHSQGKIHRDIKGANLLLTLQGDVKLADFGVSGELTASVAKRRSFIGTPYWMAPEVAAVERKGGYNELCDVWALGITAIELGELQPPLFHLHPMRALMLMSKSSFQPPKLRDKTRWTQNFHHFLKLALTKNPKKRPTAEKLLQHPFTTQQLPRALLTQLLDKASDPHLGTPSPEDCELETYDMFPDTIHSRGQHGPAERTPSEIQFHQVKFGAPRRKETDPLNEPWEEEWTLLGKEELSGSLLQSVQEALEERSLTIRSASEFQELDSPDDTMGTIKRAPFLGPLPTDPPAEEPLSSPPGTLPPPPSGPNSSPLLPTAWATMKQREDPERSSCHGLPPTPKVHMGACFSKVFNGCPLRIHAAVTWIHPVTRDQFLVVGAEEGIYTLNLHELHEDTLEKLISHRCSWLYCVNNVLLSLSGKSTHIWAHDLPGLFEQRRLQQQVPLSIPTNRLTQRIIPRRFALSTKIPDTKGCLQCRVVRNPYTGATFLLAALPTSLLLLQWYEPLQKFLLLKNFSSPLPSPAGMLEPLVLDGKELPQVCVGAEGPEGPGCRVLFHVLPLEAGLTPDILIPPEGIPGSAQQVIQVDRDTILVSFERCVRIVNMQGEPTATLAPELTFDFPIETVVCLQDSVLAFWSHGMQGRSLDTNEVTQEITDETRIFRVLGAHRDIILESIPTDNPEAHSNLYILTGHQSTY", "test": "Inhibition of MAP4K2 (unknown origin) at 1 uM by Ambit Kinomescan binding assay relative to control; values are per cent of control"}, "[2]": {"target": "Cyclin-dependent kinase 7 (Homo sapiens) (UniProt P50613)", "sequence (P50613 whole entry)": "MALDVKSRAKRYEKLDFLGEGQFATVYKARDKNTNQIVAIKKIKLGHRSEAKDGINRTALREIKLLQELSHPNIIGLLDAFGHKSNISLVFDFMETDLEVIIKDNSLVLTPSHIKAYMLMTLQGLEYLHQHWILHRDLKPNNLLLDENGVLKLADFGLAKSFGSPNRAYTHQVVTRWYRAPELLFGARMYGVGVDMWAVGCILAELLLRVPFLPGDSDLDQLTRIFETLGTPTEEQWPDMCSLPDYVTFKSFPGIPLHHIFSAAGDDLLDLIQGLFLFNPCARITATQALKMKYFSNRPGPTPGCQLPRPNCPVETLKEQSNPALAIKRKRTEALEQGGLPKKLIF", "test": "Inhibition of CDK7 Lys2 labeling site in human A-375 cells at 0.5 uM by KiNativ Profiling analysis relative to control", "type": "cell-based"}, "[3]": {"target": "Tyrosine-protein kinase CSK (Homo sapiens, UniProt P41240)", "sequence (P41240 2-450 limits assumed)": "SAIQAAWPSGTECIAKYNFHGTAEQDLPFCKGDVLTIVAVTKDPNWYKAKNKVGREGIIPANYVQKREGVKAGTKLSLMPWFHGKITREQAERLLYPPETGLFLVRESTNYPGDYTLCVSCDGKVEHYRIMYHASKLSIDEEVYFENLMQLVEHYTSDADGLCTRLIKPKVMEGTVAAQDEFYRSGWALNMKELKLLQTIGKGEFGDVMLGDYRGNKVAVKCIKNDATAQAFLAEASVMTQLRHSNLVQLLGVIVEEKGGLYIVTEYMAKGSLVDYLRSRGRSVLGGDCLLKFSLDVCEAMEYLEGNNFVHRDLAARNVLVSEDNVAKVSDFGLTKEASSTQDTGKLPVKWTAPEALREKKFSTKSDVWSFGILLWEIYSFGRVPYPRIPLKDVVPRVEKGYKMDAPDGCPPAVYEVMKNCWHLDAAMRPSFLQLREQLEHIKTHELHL", "test": "Inhibition of CSK (unknown origin) at 10 uM by Ambit Kinomescan binding assay relative to control"}, "[4]": {"target": "Ephrin type-A receptor 4 (Homo sapiens) (UniProt P54764)", "sequence (P54764 whole entry)": "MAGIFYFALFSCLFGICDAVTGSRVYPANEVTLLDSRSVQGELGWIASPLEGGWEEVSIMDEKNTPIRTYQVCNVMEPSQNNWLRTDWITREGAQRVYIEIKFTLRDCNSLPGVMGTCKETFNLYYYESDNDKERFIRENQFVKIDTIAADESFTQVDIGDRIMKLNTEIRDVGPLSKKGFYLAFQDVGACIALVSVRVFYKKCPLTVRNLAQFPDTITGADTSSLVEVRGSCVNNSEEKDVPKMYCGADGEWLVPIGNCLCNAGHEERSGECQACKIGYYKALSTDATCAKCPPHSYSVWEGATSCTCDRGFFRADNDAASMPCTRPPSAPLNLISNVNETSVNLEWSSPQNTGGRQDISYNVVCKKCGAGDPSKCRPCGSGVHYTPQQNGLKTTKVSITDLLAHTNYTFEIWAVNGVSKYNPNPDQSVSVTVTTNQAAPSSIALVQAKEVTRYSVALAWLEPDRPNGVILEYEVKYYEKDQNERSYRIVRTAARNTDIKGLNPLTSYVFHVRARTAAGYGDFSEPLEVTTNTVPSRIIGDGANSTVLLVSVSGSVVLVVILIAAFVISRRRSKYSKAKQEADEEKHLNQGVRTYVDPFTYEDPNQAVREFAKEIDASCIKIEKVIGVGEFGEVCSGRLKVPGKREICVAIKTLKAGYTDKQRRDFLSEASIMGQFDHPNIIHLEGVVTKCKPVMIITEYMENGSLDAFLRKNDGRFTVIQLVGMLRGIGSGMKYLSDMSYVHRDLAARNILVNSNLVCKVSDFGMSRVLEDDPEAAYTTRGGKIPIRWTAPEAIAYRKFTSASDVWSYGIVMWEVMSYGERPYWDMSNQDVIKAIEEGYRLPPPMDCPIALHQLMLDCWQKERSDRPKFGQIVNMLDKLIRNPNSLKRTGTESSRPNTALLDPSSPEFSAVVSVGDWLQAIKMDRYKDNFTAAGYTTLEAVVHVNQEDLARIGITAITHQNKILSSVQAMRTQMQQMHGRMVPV", "test": "Inhibition of EPHA4 (unknown origin) at 10 uM by Ambit Kinomescan binding assay relative to control"}, "[5]": {"target": "Mitogen-activated protein kinase kinase kinase 4 (Homo sapiens) (UniProt Q9Y6R4)", "sequence (Q9Y6R4 whole entry)": "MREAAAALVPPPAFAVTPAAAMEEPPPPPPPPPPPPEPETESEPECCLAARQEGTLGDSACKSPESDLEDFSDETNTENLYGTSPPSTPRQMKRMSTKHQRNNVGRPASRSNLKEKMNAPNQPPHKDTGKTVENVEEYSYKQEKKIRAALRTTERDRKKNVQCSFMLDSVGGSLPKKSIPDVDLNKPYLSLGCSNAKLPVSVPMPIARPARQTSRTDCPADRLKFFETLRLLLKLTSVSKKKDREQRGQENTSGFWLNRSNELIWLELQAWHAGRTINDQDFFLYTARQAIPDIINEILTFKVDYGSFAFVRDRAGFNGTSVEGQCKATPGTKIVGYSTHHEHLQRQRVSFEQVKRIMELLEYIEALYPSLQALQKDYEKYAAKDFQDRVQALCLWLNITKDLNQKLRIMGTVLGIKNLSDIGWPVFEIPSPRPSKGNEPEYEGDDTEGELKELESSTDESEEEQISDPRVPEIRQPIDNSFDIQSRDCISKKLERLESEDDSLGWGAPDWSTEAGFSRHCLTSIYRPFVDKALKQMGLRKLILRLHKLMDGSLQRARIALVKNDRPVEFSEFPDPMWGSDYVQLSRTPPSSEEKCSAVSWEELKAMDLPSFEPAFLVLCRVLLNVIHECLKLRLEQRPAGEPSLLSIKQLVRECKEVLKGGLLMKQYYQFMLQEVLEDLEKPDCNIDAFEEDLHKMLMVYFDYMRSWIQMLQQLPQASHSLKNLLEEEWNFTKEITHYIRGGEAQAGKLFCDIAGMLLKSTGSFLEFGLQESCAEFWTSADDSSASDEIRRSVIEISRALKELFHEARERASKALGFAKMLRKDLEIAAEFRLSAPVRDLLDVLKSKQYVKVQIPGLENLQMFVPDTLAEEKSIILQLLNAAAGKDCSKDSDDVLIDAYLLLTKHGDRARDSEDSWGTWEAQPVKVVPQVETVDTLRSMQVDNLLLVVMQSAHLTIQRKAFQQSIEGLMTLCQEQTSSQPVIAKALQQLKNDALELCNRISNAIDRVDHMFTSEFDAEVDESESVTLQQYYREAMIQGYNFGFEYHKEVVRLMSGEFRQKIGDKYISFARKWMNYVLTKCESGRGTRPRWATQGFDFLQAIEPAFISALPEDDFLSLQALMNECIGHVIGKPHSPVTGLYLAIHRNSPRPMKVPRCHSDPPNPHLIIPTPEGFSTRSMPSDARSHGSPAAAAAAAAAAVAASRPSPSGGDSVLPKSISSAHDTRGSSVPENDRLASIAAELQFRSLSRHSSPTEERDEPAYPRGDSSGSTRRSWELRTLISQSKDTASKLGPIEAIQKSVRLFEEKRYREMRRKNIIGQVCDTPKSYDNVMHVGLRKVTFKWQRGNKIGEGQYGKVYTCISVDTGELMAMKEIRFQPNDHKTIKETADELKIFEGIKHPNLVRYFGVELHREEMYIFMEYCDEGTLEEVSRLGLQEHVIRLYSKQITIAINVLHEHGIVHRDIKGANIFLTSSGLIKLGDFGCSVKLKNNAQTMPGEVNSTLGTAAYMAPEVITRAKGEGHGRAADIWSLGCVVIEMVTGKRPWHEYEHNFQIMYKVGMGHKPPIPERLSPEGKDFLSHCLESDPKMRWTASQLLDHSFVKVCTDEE", "test": "Inhibition of MAP3K4 Lys1 labeling site in human Huh-7 cell lysate at 1 uM by KiNativ Profiling analysis relative to control", "type": "subcellular"}, "[6]": {"target": "Rho-associated protein kinase 1 (Homo sapiens) (UniProt Q13464)", "sequence (Q13464 2-1354 limits assumed)": "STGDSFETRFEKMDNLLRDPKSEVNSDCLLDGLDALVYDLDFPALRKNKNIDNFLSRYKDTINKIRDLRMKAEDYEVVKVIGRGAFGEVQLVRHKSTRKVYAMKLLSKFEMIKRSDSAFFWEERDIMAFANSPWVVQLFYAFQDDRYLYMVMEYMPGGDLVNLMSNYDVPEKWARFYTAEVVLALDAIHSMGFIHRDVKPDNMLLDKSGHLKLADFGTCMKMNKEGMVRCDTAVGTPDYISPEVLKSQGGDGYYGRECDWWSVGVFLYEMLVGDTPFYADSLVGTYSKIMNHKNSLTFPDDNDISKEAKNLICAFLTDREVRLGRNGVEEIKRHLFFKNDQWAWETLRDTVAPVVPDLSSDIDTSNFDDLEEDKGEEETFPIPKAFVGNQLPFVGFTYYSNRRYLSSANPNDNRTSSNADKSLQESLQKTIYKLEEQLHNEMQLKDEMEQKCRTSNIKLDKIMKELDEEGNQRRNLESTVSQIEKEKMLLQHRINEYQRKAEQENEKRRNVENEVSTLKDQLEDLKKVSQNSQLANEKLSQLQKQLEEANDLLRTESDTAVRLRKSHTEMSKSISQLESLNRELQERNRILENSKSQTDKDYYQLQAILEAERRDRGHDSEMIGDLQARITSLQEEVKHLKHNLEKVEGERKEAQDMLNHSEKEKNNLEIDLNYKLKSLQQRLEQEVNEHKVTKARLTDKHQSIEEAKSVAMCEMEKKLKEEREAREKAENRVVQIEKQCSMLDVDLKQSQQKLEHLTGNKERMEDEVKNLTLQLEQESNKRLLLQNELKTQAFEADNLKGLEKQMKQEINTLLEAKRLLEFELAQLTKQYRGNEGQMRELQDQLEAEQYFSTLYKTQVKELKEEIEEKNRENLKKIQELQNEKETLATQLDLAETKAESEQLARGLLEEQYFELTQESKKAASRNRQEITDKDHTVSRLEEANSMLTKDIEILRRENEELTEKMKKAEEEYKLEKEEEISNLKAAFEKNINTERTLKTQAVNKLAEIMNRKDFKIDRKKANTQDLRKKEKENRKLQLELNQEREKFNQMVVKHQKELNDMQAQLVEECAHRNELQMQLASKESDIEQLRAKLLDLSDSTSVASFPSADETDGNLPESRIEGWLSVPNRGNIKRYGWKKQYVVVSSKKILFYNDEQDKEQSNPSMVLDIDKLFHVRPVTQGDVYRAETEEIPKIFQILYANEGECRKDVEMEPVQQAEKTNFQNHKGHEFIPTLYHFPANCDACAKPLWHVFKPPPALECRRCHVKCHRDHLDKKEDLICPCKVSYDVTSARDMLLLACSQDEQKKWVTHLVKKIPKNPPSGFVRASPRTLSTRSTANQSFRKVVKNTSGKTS", "test": "Inhibition of ROCK1 Lys2 labeling site in human Huh-7 cell lysate at 1 uM by KiNativ Profiling analysis relative to control", "type": "subcellular"}, "[7]": {"target": "T2, Serine/threonine-protein kinase TAO1 (Homo sapiens) (UniProt Q7L7X3)", "T2 sequence (whole entry)": "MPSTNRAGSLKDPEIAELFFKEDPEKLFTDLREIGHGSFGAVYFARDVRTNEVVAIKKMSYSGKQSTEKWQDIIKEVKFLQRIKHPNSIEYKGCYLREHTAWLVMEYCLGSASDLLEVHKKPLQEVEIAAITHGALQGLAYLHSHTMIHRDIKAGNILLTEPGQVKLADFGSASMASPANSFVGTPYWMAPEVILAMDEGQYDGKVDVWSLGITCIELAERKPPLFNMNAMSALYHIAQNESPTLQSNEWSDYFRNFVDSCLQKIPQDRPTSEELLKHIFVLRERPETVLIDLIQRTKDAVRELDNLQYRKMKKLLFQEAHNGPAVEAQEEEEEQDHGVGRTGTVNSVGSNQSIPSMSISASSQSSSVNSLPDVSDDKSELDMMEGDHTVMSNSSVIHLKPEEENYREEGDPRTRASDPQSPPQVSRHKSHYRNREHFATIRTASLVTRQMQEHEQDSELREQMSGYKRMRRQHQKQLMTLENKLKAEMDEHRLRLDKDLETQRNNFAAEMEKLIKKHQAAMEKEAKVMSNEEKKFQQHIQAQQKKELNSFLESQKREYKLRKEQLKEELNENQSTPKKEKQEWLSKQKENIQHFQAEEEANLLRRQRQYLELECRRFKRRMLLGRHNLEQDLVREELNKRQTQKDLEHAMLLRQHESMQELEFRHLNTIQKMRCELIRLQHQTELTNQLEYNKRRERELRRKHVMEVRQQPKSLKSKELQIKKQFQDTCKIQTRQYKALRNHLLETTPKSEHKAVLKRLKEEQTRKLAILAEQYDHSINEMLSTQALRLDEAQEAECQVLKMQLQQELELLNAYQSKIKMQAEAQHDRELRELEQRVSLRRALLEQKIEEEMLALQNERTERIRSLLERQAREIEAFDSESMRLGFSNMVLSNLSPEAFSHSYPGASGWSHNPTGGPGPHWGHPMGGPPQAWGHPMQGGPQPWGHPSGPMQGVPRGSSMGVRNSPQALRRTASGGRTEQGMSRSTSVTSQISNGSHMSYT", "test": "Inhibition of TAO1 Lys2 labeling site in human Huh-7 cells at 1 uM by KiNativ Profiling analysis relative to control", "type": "cell-based"}}}
{"molecule": "CCN1CCN(Cc2ccc(NC(=O)c3ccc(C)c(/C=C/c4cnc5[nH]ccc5c4OC)c3)cc2C(F)(F)F)CC1", "values": [{"measurement": "percent of control", "setting": "[1]", "result": 3.2, "unit": "%"}, {"measurement": "inhibition", "setting": "[2]", "result": 36.2, "unit": "%"}]}
{"molecule": "CCN1CCN(Cc2ccc(NC(=O)c3ccc(C)c(Oc4ccnc5[nH]ccc45)c3)cc2C(F)(F)F)CC1", "values": [{"measurement": "inhibition", "setting": "[3]", "result": 0.45, "unit": "%"}, {"measurement": "inhibition", "setting": "[4]", "result": 5.8, "unit": "%"}]}
{"molecule": "CNc1cc(Oc2cc(C(=O)Nc3cc(N4CCN(C)CC4)cc(C(F)(F)F)c3)ccc2C)ncn1", "values": [{"measurement": "inhibition", "setting": "[5]", "result": -1.7, "unit": "%"}, {"measurement": "inhibition", "setting": "[6]", "result": 2.7, "unit": "%"}, {"measurement": "inhibition", "setting": "[7]", "result": 0.4, "unit": "%"}]}
